Reference: patent US8323956B2, “Distal tip of biosensor transducer comprising enzyme for deamination” (Colorado State University Research Foundation, priority 2001, dated 2012)

Tests used:
[1] = target: T1, LinB haloalkane dehalogenase (Sphingobium indicum, UniProt D4Z2G1); conditions: reported by Damborsky et al. 2001; cited from earlier work
T1 sequence (D4Z2G1 1-296): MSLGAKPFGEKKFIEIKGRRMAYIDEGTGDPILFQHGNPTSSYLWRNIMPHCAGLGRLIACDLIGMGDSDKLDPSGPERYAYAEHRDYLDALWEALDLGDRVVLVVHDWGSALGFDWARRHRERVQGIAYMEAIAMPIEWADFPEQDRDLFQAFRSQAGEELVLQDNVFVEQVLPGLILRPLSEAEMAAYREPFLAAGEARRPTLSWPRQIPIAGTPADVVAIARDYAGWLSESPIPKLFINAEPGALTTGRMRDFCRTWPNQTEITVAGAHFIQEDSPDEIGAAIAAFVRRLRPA

[2] = target: T1, LinB haloalkane dehalogenase; assay: LinB biosensor sensitivity for halogenated hydrocarbons
Source text: The haloalkane dehalogenase LinB was used to develop biosensors for several halogenated hydrocarbons.

melamine deaminase TriA = target: T2, melamine deaminase TriA (Paracidovorax citrulli, UniProt Q9EYU0); assay: TriA (melamine deaminase) biosensor response, cells in calcium alginate on pH-sensitive optical fiber; assay type: cell-based, Escherchia coli DH5α pJS3
T2 construct: expressed in transfected cells; host or cells: Escherichia coli DH5α pJS3
Source text: Cells of Escherchia coli DH5α pJS3 (Seffernick et al., J. Bact. 183 (8), 2405-2410, 2001) were immobilized in calcium alginate on the tip of an optical fiber coated with a PVA-fluoresceinamine conjugate, a pH-sensitive fluorophore. The plasmid pJS3 contains the gene triA, and thus the E. coli cells can express the melamine deaminase TriA, which catalyzes the cleavage of one of the amine groups. The products of this reaction are ammeline (2-hydroxy-4,6-diamino-s-triazine) and ammonia.
The release of ammonia led to an increase in pH on the tip of the optical fiber, which was detected as an increase in the fluorescence of fluoresceinamine (FIG. 21).
The melamine deaminase biosensor was also responsive to the related amine-containing chemical 2-chloro-4,6-diamino-s-triazine (CAAT) (Table 12 and FIG. 22).

E. coli pAQN (linB) = target: T3, E. coli pAQN (linB) (Sphingobium indicum, UniProt D4Z2G1); assay: Biosensor response to 1,2-dibromoethane measured repeatedly over 50 days; assay type: cell-based; conditions: 5 ppb of 1,2-dibromoethane, in more than 50 days
T3 construct: expressed in transfected cells; host or cells: E. coli carrying plasmid pAQN
Procedure: FIG. 17 depicts a biosensor response to 5 μg/L 1,2-dibromoethane using E. coli pAQN (linB) as the biocomponent, measured repeatedly over 50 days, according to an embodiment.
The release of a proton from the dehalogenation reaction is detected as a pH change at the end of the optical fiber, and thus as a change in fluorescence intensity (FIG. 14). Fiber optic biosensors for 1,2-dichloroethane (DCA), ethylene dibromide (EDB), atrazine, 1-chlorohexane and Lindane (γ-hexachlorocyclohexane) have been developed (Campbell, 1998; Das, N., Development and Characterization of a Biosensor for Atrazine in Groundwater, Chemical Engineering. 2000, Colorado State University: Fort Collins). These biosensors have linear response ranges over several orders of magnitude in concentration, and detection in the ppt (ng/L) range has been achieved (FIG. 15). […] This fact, and the stability of the enzymes, allows the biosensors to retain activity for many weeks. In one test (FIG. 16), the biosensor response to 5 ppb of 1,2-dibromoethane declined by only 20% in more than 50 days. Sensitive measurement is still possible even at the end of the test; only a recalibration is required.

T2 sequence (Q9EYU0 whole entry): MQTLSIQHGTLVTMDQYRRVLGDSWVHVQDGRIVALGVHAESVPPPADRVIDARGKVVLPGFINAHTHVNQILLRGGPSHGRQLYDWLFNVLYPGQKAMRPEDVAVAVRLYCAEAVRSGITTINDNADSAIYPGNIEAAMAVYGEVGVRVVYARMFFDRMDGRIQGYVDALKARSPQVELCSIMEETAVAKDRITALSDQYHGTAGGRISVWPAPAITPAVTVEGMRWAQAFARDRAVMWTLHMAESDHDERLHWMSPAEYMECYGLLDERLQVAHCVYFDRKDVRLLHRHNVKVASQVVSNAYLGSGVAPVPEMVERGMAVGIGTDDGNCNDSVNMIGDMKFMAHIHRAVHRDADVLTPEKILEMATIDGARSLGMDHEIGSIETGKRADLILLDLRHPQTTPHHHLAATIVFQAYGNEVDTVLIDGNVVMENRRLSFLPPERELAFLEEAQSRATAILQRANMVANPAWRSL

SMILES	LinB activity (% of 1-chlorobenzene rate) [1]	Biosensor sensitivity (ΔV/ppb analyte) [2]	Response (count) (melamine deaminase TriA; 0.12 mg/L)	Response time (melamine deaminase TriA; 0.12 mg/L)	Response (count) (melamine deaminase TriA; 1.21 mg/L)	Response time (melamine deaminase TriA; 1.21 mg/L)	decline of biosensor response (E. coli pAQN (linB))
CCCCCCCl [1-chlorohexane]	145%	0.21 ΔV/ppb analyte					
Nc1nc(N)nc(Cl)n1 [CAAT, 2-chloro-4,6-diamino-s-triazine]			150 count	2 h	800 count	10 h	
Nc1nc(N)nc(N)n1 [Melamine, 2,4,6-triamino-1,3,5-triazine]			1000 count	20 h	2700 count	16 h	
BrCCBr [1,2-dibromoethane]	355%	0.29 ΔV/ppb analyte					20%
